Assay results taken from PMC11085308, “Design, Synthesis and Biological Activity of Novel Methoxy- and Hydroxy-Substituted N-Benzimidazole-Derived Carboxamides” (Molecules, 2024).
Converted amounts (≈) assume the structure as drawn.

Key:
H460 (lung carcinoma) = assay: Antiproliferative activity in vitro, MTT assay, 72 h; assay type: cell-based; details: Homo sapiens, NCI-H460, 72 h incubation
Experimental: (§1) The experiments were carried out on four human cell lines which are derived from three cancer types: H460 (lung carcinoma), HCT 116 (colorectal carcinoma), MCF-7 (human breast cancer) and the non-cancerous cell line HEK 293 (human embryonic kidney).
(§2) The results are compared with the known antiproliferative agents doxorubicin and etoposide. […] Therefore, it is not clear whether the observed antiproliferative activity is due to the biological activity of the compounds or to precipitation.
(§3) The experiments were performed on four human cell lines, including HCT 116 (colon carcinoma), H 460 (lung carcinoma), MCF-7 (breast carcinoma) and HEK 293 (human embryonic kidney cells), in line with previously published experimental procedures. Briefly, the cells were grown in DMEM medium with the addition of 10% fetal bovine serum (FBS), 2 mM of L-glutamine, 100 U/mL of penicillin and 100 µg/mL of streptomycin and cultured as monolayers at 37 °C in a humidified atmosphere with 5% CO2. Cells were seeded at 2 × 10^3 cells/well in standard 96-well microtiter plates and left to attach for 24 h. The next day, a test compound was added in five serial 10-fold dilutions. The rate of cell growth was evaluated after 72 h of incubation with MTT assays. […] Each test was performed in quadruplicate in at least two individual experiments.

[1] = test system: HCT 116 (colorectal carcinoma); assay: as above; assay type: cell-based; details: Homo sapiens, 72 h incubation, '-' with footnote a = did not show biological activity due to precipitation
Experimental: as §1, §2, §3

[2] = test system: MCF-7 (human breast cancer); assay: as above; assay type: cell-based; details: MCF7, 72 h incubation
Experimental: as §1, §2, §3

[3] = test system: HEK 293 (human embryonic kidney); assay: Antiproliferative activity in vitro, MTT assay, 72 h, non-cancerous cell line; assay type: cell-based; details: HEK293, 72 h incubation, '-' with footnote a = did not show biological activity due to precipitation
Experimental: as §1, §2, §3

[4] = Ferric reducing/antioxidant power (FRAP assay); set-up: FRAP: unit not given here; details: for FRAP: Fe2+ equivalents, triplicate; for FRAP ferric reducing/antioxidant power, in words: compared to the standard BHT
Experimental: (§4) The synthesized benzazole acrylonitrile derivatives were screened for their antioxidative potency by using in vitro assays, namely DPPH and ABTS as free radical scavenging assays and FRAP as a ferric reducing/antioxidant power assay.
The antioxidant activity of a substance is directly related to its reducing power.
The FRAP method was carried out according to previously described procedures with some modifications to make it compatible with an assay on a 96-well microplate. All results were expressed as Fe^2+ equivalents (Fe^2+ µmol). Ferrous sulphate (FeSO4 × 7H2O) was used to develop a standard curve of 20–2000 µmol/l for the FRAP test.

[5] = ABTS radical scavenging assay; details: for IC50: head prints 'mM (* µM)', no cell carries an asterisk
From the text: as §4
(§5) The well-known antioxidant butylated hydroxytoluene (BHT) was used as a standard for comparing activity during testing. The DPPH assay is a standard commonly used test for the in vitro assessment of the antioxidant capacity of novel compounds by using their ability to scavenge the stable radical 1,1-diphenyl-picrylhydrazyl. […] Another test used to evaluate the antioxidative capacity of novel compounds was the ABTS test, by which their activity was evaluated by scavenging the stable radical 3-ethylbenzthiazoline-6-sulphonic acid.
The total antioxidant activity (TEAC) method was adapted for use with a microplate reader. […] On the day of analysis, the ABTS•+ solution was diluted with PBS (pH7.4) to attain an absorbance of 0.700 ± 0.01 at 734 nm. This radical state remained stable for over two days when stored in the dark at room temperature. The standards and solutions of the tested compounds (10 µL) were mixed with the working ABTS•+ solution (200 µL) in microplate wells and incubated at room temperature for 5 min. The reduction in absorbance at 734 nm was measured using a µQuant (Biotec Inc., Auburn, CA, USA) microplate reader. The percentage scavenging of the test samples at each concentration was calculated using the following formula:[(Abscontrol − Abscompound)/Abscontrol] × 100
The IC50 values for each compound were calculated from dose–response curves. All measurements where carried out in triplicate with a linear regression analysis.

[6] = DPPH free radical scavenging assay; details: compared to the standard BHT
From the text: as §4, §5
Determination of the reducing activity of the stable radical 1,1-diphenyl-picrylhydrazyl (DPPH):
The reducing activity of the investigated systems was measured by the DPPH method according to previously described procedures with modifications to ensure their use on a 96-well microplate. Briefly, equal volumes of various concentrations of the tested molecules (dissolved in DMSO) were added to a solution of DPPH (final concentration of 50 µM in absolute ethanol). Ethanol and DMSO were used as control solutions in line with earlier reports. The radical scavenging activity was calculated using the following formula:[(A517 control − A517 compound)/A517 control] × 100.
The IC50 values were calculated from dose–response curves using nonlinear regression analysis with the GraphPad Prism 8 Ink. program. All measurements were carried out in triplicate.

S. aureus ATCC 29213 = assay: Antibacterial activity in vitro, broth microdilution MIC; assay type: cell-based, Staphylococcus aureus; details: for MIC S. aureus ATCC 29213: broth microdilution, 16–24 h at 37 °C, unit inferred
Experimental: (§6) The in vitro antibacterial activity of the synthesized benzamides 7–12 and 31–37 was evaluated against a panel of eight different bacterial strains. The Gram-positive bacterial strains comprised S. aureus, S. pneumoniae and E. faecalis, and the panel of Gram-negative bacteria consisted of E. coli, K. pneumoniae, A. baumannii and P. aeruginosa.
(§7) The selected bacterial strains were Gram-negative Escherichia coli (ATCC 25922) and Gram-positive Staphylococcus aureus (ATCC 29213) and S. Pneumoniae (ATCC 49619). The Saccharomyces cerevisiae ATCC 7752 strain was tested as a eukaryotic model organism. Synthesized compounds were prepared as 10 mM DMSO solutions and tested in a final concentration range of 100–0.2 µM [39].
(§8) Broth microdilution testing was performed according to CLSI (Clinical Laboratory Standards Institute) guidelines. The MIC (minimal inhibitory concentration) value was defined as the last tested concentration of a compound at which there is no visible growth of bacteria. Inoculums for each microorganism were prepared using the direct colony suspension method, where broth solutions that achieved turbidity equivalent to 0.5 McFarland standards were additionally diluted 100× with cation-adjusted MH media (Becton Dickinson). All test plates were incubated for 16–24 h at 37 °C.

A. baumannii ATCC 17978 = assay: as above; assay type: cell-based; details: 16–24 h at 37 °C, unit inferred
Experimental: as §6, §7, §8

E. faecalis ATCC 29212 = assay: as above; assay type: cell-based; details: for MIC E. faecalis ATCC 29212: broth microdilution, 16–24 h at 37 °C, unit inferred
Experimental: as §6, §7, §8

P. aeruginosa ATCC 27853 = assay: as above; assay type: cell-based; details: 16–24 h at 37 °C, unit inferred
Experimental: as §6, §7, §8

E. coli ATCC 25922 = assay: as above; assay type: cell-based, Escherichia coli; details: 16–24 h at 37 °C, unit inferred
Experimental: as §6, §7, §8

E. coli efflux del. = assay: microbe, parasite or virus in culture; assay type: cell-based, Escherichia coli; details: for MIC E. coli efflux del.: broth microdilution, 16–24 h at 37 °C, unit inferred
Experimental: as §6, §7, §8

HCT 116 cells = assay: Antioxidative activity assay in cells (ROS level, DCFH-DA fluorescence); assay type: cell-based, human; details: HCT 116, TBHP 100 µM plus 10 µM compound, 1 h, compared to NAC
From the text: We further selected compounds 9, 10, 32 and 36, showing quite pronounced antioxidant capacity in the DPPH and FRAP assays, in order to test their pro- and antioxidant activity in tumor cells. In order to test the antioxidant activity of the selected compounds in tumor cells (Figure 2), we treated HCT 116 cells with tert-butyl hydroperoxide (TBHP), a substance commonly used for inducing oxidative stress in cells and tissues, alone or in combination with a known antioxidative agent, N-acetyl-L-cysteine (NAC), or the tested compounds. We measured the formation of oxidative stress byproducts using 2′,7′-dichlorodihydrofluorescein diacetate (DCFH-DA).
For the antioxidative activity assay, 2.5 × 10^4 cells were seeded into 96-well microtiter plates and left to attach for 24 h. The next day, cells were washed with PBS and incubated in FBS-free DMEM medium with 25 µM of DCFH-DA fluorescence dye. After 45 min of incubation, the medium was discarded, and the cells were washed with PBS.
After the washing step, the cells were incubated with 100 µM of tert-butyl hydroperoxide (TBHP) alone or in combination with antioxidative agents (50 mM of N-Acetyl-L-cysteine-NAC or 10 µM of the tested compounds) in PBS for 1 h at 37 °C. DCFH-DA fluorescence was recorded on a microplate fluorimeter reader (Tecan) with an excitation beam of 485 nm, while the emitted fluorescence was collected at 535 nm. All tests were presented as the means of two independent measurements carried out in triplicate. One-way ANOVA with Tukey’s post hoc test was used for statistical analysis: *—p < 0.05; **—p < 0.01; ***—p < 0.001.
Figure 2 Antioxidative activity of selected systems. HCT 116 cells were treated with a combination of H2O2 (4 mM) and N-acetyl-L-cysteine (NAC, 10 mM) or the tested compounds (10 mM). Treatment with H2O2 (4 mM) alone was used as a control for ROS induction. The level of reactive oxygen species (ROS) was measured with the fluorescent dye DCFH-DA using a fluorimeter. The data presented here are the results of three independent measurements carried out in triplicate. A one-way ANOVA with Tukey’s post hoc test was used for statistical analysis, *** p < 0.001; ns—not significant.

CCCCCCn1c(NC(=O)c2cc(O)c(O)c(O)c2)nc2cc(C#N)ccc21 [Compound 37, N-(5-cyano-1-hexyl-1H-benzo[d]imidazol-2-yl)-3,4,5-trihydroxybenzamide]
IC50 (H460 (lung carcinoma)): 47 ± 8.7 µM
IC50 [1]: 37.8 ± 6 µM
IC50 [2]: 38.2 ± 3.2 µM
IC50 [3]: 37.9 ± 0.4 µM
FRAP [4]: 2780.81 ± 15.12
FRAP ferric reducing/antioxidant power, in words [4]: excellent in vitro antioxidant activity
IC50 [5]: 0.002 ± 0.0001 mM
ABTS antioxidative activity, in words ([5]; in comparison to the standard BHT): pronounced antioxidative activity
DPPH free radical scavenging activity, in words [6]: significantly improved
MIC (S. aureus ATCC 29213; Staphylococcus aureus, ATCC29213, read-out: MIC S. aureus): 16 µM (≈ 6.31 µg/mL)
MIC S. aureus ATCC 29213 (S. aureus ATCC 29213): 16 µM (≈ 6.31 µg/mL)
MIC A. baumannii ATCC 17978 (A. baumannii ATCC 17978): > 64 µM
MIC (E. faecalis ATCC 29212; Enterococcus faecalis, ATCC29212, read-out: MIC E. faecalis): 16 µM (≈ 6.31 µg/mL)
Selectivity of antibacterial activity, in words (E. faecalis ATCC 29212; against the Gram-positive strain E. faecalis): selective antibacterial activity
MIC E. faecalis ATCC 29212 (E. faecalis ATCC 29212): 16 µM (≈ 6.31 µg/mL)
MIC P. aeruginosa ATCC 27853 (P. aeruginosa ATCC 27853): > 64 µM
MIC E. coli ATCC 25922 (E. coli ATCC 25922): > 64 µM
MIC (E. coli efflux del.; Escherichia coli, read-out: MIC E. coli efflux del.): 16 µM (≈ 6.31 µg/mL)
MIC E. coli efflux del. (E. coli efflux del.): 16 µM (≈ 6.31 µg/mL)
melting point: 290 to 294 °C

O=C(Nc1nc2ccccc2[nH]1)c1cc(O)c(O)c(O)c1 [Compound 32, N-(1H-benzo[d]imidazol-2-yl)-3,4,5-trihydroxybenzamide]
IC50 (H460 (lung carcinoma)): > 100 µM
IC50 [1]: > 100 µM
IC50 [2]: 39.8 ± 1.4 µM
IC50 [3]: 66 ± 1.7 µM
FRAP [4]: 3245.79 ± 16.38
FRAP ferric reducing/antioxidant power, in words [4]: excellent in vitro antioxidant activity
DPPH free radical scavenging activity, in words [6]: significantly improved
Level of ROS in cells under induced oxidative stress (HCT 116 cells): reducing the level of ROS in the cells
MIC S. aureus ATCC 29213 (S. aureus ATCC 29213): > 64 µM
MIC A. baumannii ATCC 17978 (A. baumannii ATCC 17978): > 64 µM
MIC E. faecalis ATCC 29212 (E. faecalis ATCC 29212): > 64 µM
MIC P. aeruginosa ATCC 27853 (P. aeruginosa ATCC 27853): > 64 µM
MIC E. coli ATCC 25922 (E. coli ATCC 25922): > 64 µM
MIC E. coli efflux del. (E. coli efflux del.): > 64 µM
melting point: 230 to 234 °C

Cc1cc(C(C)(C)C)c(O)c(C(C)(C)C)c1 [BHT, butylated hydroxytoluene, reference compound]
IC50 [5]: 0.02312 ± 0.00012 mM
